This is an account of results in US9421204B2, “Oligomer modified diaromatic substituted compounds” (priority 2010, dated 2016).

Where two headings read alike, the source gives them in different places.

The nature of series [1]: in vitro. It counts as in vitro ADME. The settings on record: human; for Papp A→B at 2 hours, 10 μM / Papp B→A at 2 hours, 10 μM: pH 7.4; for Papp A→B at 2 hours, 10 μM: read-out: Average Papp, A→B; for Papp B→A at 2 hours, 10 μM: read-out: Average Papp, B→A; for efflux ratio at 2 hours, 10 μM: read-out: Efflux Ratio (B→A/A→B). The protocol: Each determination was performed in duplicate.
Vr is the volume of the receiver compartment in cm^3.
Vd is the volume of the donor compartment in cm^3.
A is the area of the cell monolayer (1.13 cm^2 for 12-well Transwell®).
CN is the nominal dosing concentration of the dosing solution in μM.
CA is the average of the nominal dosing concentration and the measured 120 minute donor concentration in μM.
Cr^final is the receiver concentration in μM at the end of the incubation period.
Cd^final is the concentration of the donor in μM at the end of the incubation period.

Series [2] addresses Wild Type RT (Human immunodeficiency virus type 1 group M subtype B, UniProt P04585). The series can be described thus: HIV-1 Reverse Transcriptase Inhibition Assay. It is filed as biochemical. The procedure:
The following materials were removed from the freezer and were stored on wet ice (dGTP, ^32P, purified enzyme extract, rCdG, dGTP, DNA). Test compounds were evaluated at a high test of 100 μM diluted in dH2O and if the stock solution was turbid, 1:1000 Triton-X was added to the stock solution. Thirty microliters (30 μL) of each dilution was then transferred in duplicate to the appropriate well of a 96-well plate. The positive and negative control wells each received 30 μL of dH2O instead of the compound. A 2× buffer was prepared in the following manner: 125 μL 2M Tris pH 8.0, 250 μL 3M KCl, 80 μL 1 M MgC12, 10 μL 2 M DTT, 40 μL 25 U/mL rCdG, 100 μL 1 mM dGTP, 10 μL 800 Ci/mMol alpha ^32P:dG TP, and 4.4 mL dH2O. Fifty microliters (50 μL) of 2× buffer was added to every well of the plate. BSA was diluted 1:100 and Triton-X 1:1000 in dH2O and the enzyme was added to the mixture at a 1:400 dilution. Twenty microliters (20 μL) of the enzyme solution was added to all of the wells of the plate except the negative control wells. Distilled water was used instead of enzyme in these wells. The plate was incubated at 37° C. for 30 minutes. Following incubation, 10 μL of 10 mg/mL DNA (MB-grade fish sperm) was added to each well, followed by 150 μL of cold 10% TCA in each well. The plate was incubated at room temperature for approximately 15 minutes in order to allow for precipitation of the samples. Following the incubation the contents were transferred to the appropriate filter plate. The plate was placed on the vacuum manifold and pushed firmly to induce suction. Wells were rinsed with 200 μL of cold TCA. Again, the plate was pushed down firmly and vacuum suction was applied. Once all of the liquid was aspirated from the filter plate, it was removed from the manifold and residual liquid was blotted from the bottom of the plastic base. The filtered wells were separated from the plastic base and the wells were blotted on clean, absorbent paper. The filtered wells were pushed into the cassette and a sheet of Millipore multiscreen tape was placed on the bottom of a Wallace Microbeta cassette covering all of the holes. Twenty microliters (20 μL) of Wallace Supermix Scintillant was added to each well and the top of the wells were covered with a sheet of the multiscreen tape. The plate was read on the Wallace MicroBeta counter to measure incorporated ^32P.

The nature of series [3]: pKa determination (Sirius GLpKa). It counts as physicochemical. The note with it: aqueous pKa, 25° C. The procedure: The Sirius GLpKa instrument is used to determine the pKa and Log P. A blank standardization has to be completed first and passed in order to conduct the compound experiments. The solutions used by the instrument for the blank titration include water, a pH solution, and a surfactant (TRITON X-100). The TRITON X-100 was purchased commercially from Sirus. The 0.5% solution of TRITON X-100 was used in the experiment. In a 1 L volumetric flask 5 mls of TRITON X-100 is added and MILLI Q water to volume. The vessels used by the instrument were filled to ⅓ of their volume with each solution. Therefore the assay tray contains one vessel for water, pH solution, and surfactant for the blank run. The temperature of the water bath for the instrument is 25° C. The blank is calculated as an average of three “good” experiments. The “good” was denoted by a green check mark next to the assay number in the computer software. Once the blank was run successfully the instrument was ready to conduct the experiments.
The pKa has to be determined first in order to calculate the Log P. The API is used to determine the pKa needed for the Log P experiment followed by the conjugates. The base compound was first weighed into a vessel. The amount weighed for each sample was 10% of the molecular weight of the compound. The same procedure was followed for each conjugate. The vessels were placed in the assay tray of the instrument. A method had to be set up for the pKa run. The experimental parameters are entered into the computer software. These included sample weight, molecular weight, assay type (aqueous pKa), number of assays (three), and titration range (generally 3.5-12). The run was started. There are three measurements for each run that are averaged to obtain the final results from the data points collected in the calculation software. All runs were denoted as “good” by the green check mark next to the assay number.

The mark [4] stands for this setting: Caco-2, pH 7.4, Test 2, 10 μM, read-out: Recovery (%) A→B.
[5] abbreviates: Caco-2, pH 7.4, Test 2, 10 μM, read-out: Recovery (%) B→A.
The mark [6] stands for this setting: Caco-2, pH 7.4, Test 1, 10 μM, read-out: Recovery (%) A→B.
Where [7] appears, read: Caco-2, pH 7.4, Test 1, 10 μM, read-out: Recovery (%) B→A.

The Papp A→B is the apparent permeability from the apical to the basolateral side of a cell layer. What is called Papp B→A is the apparent permeability from the basolateral to the apical side of a cell layer. The term IC50 denotes the concentration that inhibits the measured activity by half.

With `COCCNc1ccc2[nH]c(C(=O)N3CCN(c4ncccc4NC(C)C)CC3)cc2c1` [5-mPEG1-NH-Delavirdine, 5-mPEG-NH-Delavirdine], in series [1] (Caco-2, pH 7.4, Test 2, 10 μM), the Papp A→B at 2 hours, 10 μM came to 50.2 ×10⁻⁶ cm/s and the Papp B→A at 2 hours, 10 μM came out at 39.4 ×10⁻⁶ cm/s. In series [1] (setting [4]), the recovery at 2 h, 10 μM is 91%. For the same compound, the recovery at 2 h, 10 μM in series [1] (setting [5]) was found to be 92%. In series [1] (Caco-2, pH 7.4, Test 2), the efflux ratio at 2 hours, 10 μM was determined as 0.8. In addition, the IC50 in series [2] (Wild Type RT IC50) is 250 nM.

Turning to `COCCOCCOCCOCCOCCOCCOCCOc1ccc2[nH]c(C(=O)N3CCN(c4ncccc4NC(C)C)CC3)cc2c1` [mPEG7-O-Delavirdine, 5-O-mPEG7-Delavirdine], the Papp A→B at 2 hours, 10 μM stood at 14.2 ×10⁻⁶ cm/s in series [1] (Caco-2, pH 7.4, Test 1, 10 μM) and 23.1 ×10⁻⁶ cm/s in series [1] (Caco-2, pH 7.4, Test 2, 10 μM). For the same compound, the Papp B→A at 2 hours, 10 μM in series [1] (Caco-2, pH 7.4, Test 1, 10 μM) turned out to be 36.6 ×10⁻⁶ cm/s; in series [1] (Caco-2, pH 7.4, Test 2, 10 μM), 39.3 ×10⁻⁶ cm/s. Besides, the recovery at 2 h, 10 μM in series [1] (setting [6]) was determined as 74%; in series [1] (setting [7]), 69%; in series [1] (setting [4]) it was 94%; in series [1] (setting [5]) it was 95%. Moreover, the efflux ratio at 2 hours, 10 μM in series [1] (Caco-2, pH 7.4, Test 1) is 2.6; in series [1] (Caco-2, pH 7.4, Test 2), 1.7. In addition, in series [3], the pKa1 was 4.683. Further, inhibition in series [2] (Wild Type RT IC50) was half-maximal at 700 nM (IC50).

Take `COCCOCCOCCOCCOCCOc1ccc2[nH]c(C(=O)N3CCN(c4ncccc4NC(C)C)CC3)cc2c1` [mPEG5-O-Delavirdine, 5-O-mPEG5-Delavirdine]: the Papp A→B at 2 hours, 10 μM amounted to 29.9 ×10⁻⁶ cm/s in series [1] (Caco-2, pH 7.4, Test 1, 10 μM) and 33.3 ×10⁻⁶ cm/s in series [1] (Caco-2, pH 7.4, Test 2, 10 μM). The Papp B→A at 2 hours, 10 μM in series [1] (Caco-2, pH 7.4, Test 1, 10 μM) amounted to 39.1 ×10⁻⁶ cm/s; in series [1] (Caco-2, pH 7.4, Test 2, 10 μM) it was 38.9 ×10⁻⁶ cm/s. Also, the recovery at 2 h, 10 μM in series [1] (setting [6]) was determined as 71%; in series [1] (setting [7]), 65%; in series [1] (setting [4]), 97%; in series [1] (setting [5]), 95%. In addition, the efflux ratio at 2 hours, 10 μM in series [1] (Caco-2, pH 7.4, Test 1) turned out to be 1.3; in series [1] (Caco-2, pH 7.4, Test 2) it was 1.2. This compound also registered a pKa1 in series [3] of 4.454. Further, the IC50 in series [2] (Wild Type RT IC50) came to 130 nM.

For `COCCOCCOCCOCCOc1ccc2[nH]c(C(=O)N3CCN(c4ncccc4NC(C)C)CC3)cc2c1` [mPEG4-O-Delavirdine, 5-O-mPEG4-Delavirdine], the apical-to-basolateral permeability (Papp A→B) at 2 hours, 10 μM in series [1] (Caco-2, pH 7.4, Test 1, 10 μM) is 39.3 ×10⁻⁶ cm/s. Moreover, the Papp B→A at 2 hours, 10 μM in series [1] (Caco-2, pH 7.4, Test 1, 10 μM) turned out to be 34.8 ×10⁻⁶ cm/s. The recovery at 2 h, 10 μM in series [1] (setting [6]) amounted to 74%; in series [1] (setting [7]), 65%. The efflux ratio at 2 hours, 10 μM in series [1] (Caco-2, pH 7.4, Test 1) is 0.9. In addition, the pKa1 in series [3] came out at 4.275. Also, 280 nM corresponded to half-maximal inhibition in series [2] (Wild Type RT IC50) (IC50).

In the case of `COCCOCCOCCOc1ccc2[nH]c(C(=O)N3CCN(c4ncccc4NC(C)C)CC3)cc2c1` [mPEG3-O-Delavirdine, 5-O-mPEG3-Delavirdine], the apical-to-basolateral permeability (Papp A→B) at 2 hours, 10 μM in series [1] (Caco-2, pH 7.4, Test 1, 10 μM) was found to be 38.4 ×10⁻⁶ cm/s; in series [1] (Caco-2, pH 7.4, Test 2, 10 μM), 41.4 ×10⁻⁶ cm/s. For the same compound, the Papp B→A at 2 hours, 10 μM in series [1] (Caco-2, pH 7.4, Test 1, 10 μM) worked out at 33.9 ×10⁻⁶ cm/s; in series [1] (Caco-2, pH 7.4, Test 2, 10 μM), 29.1 ×10⁻⁶ cm/s. The recovery at 2 h, 10 μM in series [1] (setting [6]) amounted to 66%; in series [1] (setting [7]), 61%; in series [1] (setting [4]), 95%; in series [1] (setting [5]) it was 101%. Besides, the efflux ratio at 2 hours, 10 μM in series [1] (Caco-2, pH 7.4, Test 1) came out at 0.9; in series [1] (Caco-2, pH 7.4, Test 2), 0.7. The compound further yielded a pKa1 in series [3] of 3.792. Besides, the IC50 in series [2] (Wild Type RT IC50) is 50 nM.

In the case of `COCCOCCOCCOCCOCCOCCOc1ccc2[nH]c(C(=O)N3CCN(c4ncccc4NC(C)C)CC3)cc2c1` [mPEG6-O-Delavirdine, 5-O-mPEG6-Delavirdine], in series [1] (Caco-2, pH 7.4, Test 1, 10 μM), the Papp A→B at 2 hours, 10 μM was 16.1 ×10⁻⁶ cm/s and the Papp B→A at 2 hours, 10 μM was determined as 34.1 ×10⁻⁶ cm/s. In addition, in series [1] (setting [6]), the recovery at 2 h, 10 μM was found to be 67%. Also, the recovery at 2 h, 10 μM in series [1] (setting [7]) amounted to 72%. Also, the efflux ratio at 2 hours, 10 μM in series [1] (Caco-2, pH 7.4, Test 1) was determined as 2.1. The same compound came in with a pKa1 in series [3] of 4.447. The IC50 in series [2] (Wild Type RT IC50) is 290 nM.

As to `COCCOCCOCCOCCOCCOCCOCCOCCOc1ccc2[nH]c(C(=O)N3CCN(c4ncccc4NC(C)C)CC3)cc2c1` [mPEG8-O-Delavirdine, 5-O-mPEG8-Delavirdine], in series [1] (Caco-2, pH 7.4, Test 1, 10 μM), the Papp A→B at 2 hours, 10 μM amounted to 4.98 ×10⁻⁶ cm/s and the Papp B→A at 2 hours, 10 μM was 43.6 ×10⁻⁶ cm/s. The recovery at 2 h, 10 μM in series [1] (setting [6]) was found to be 80%. For the same compound, the recovery at 2 h, 10 μM in series [1] (setting [7]) was found to be 82%. Moreover, the efflux ratio at 2 hours, 10 μM in series [1] (Caco-2, pH 7.4, Test 1) amounted to 8.8. In series [3], this compound came in with a pKa1 of 4.667. In series [2] (Wild Type RT IC50), this compound gave an IC50 of 490 nM.

Regarding `COCCOCCNc1ccc2[nH]c(C(=O)N3CCN(c4ncccc4NC(C)C)CC3)cc2c1` [5-mPEG2-NH-Delavirdine], the Papp A→B at 2 hours, 10 μM in series [1] (Caco-2, pH 7.4, Test 2, 10 μM) was 46.2 ×10⁻⁶ cm/s. The Papp B→A at 2 hours, 10 μM in series [1] (Caco-2, pH 7.4, Test 2, 10 μM) is 41.1 ×10⁻⁶ cm/s. The recovery at 2 h, 10 μM in series [1] (setting [4]) and in series [1] (setting [5]) was 88% each time. Also, the efflux ratio at 2 hours, 10 μM in series [1] (Caco-2, pH 7.4, Test 2) came out at 0.9. In series [2] (Wild Type RT IC50), this compound yielded an IC50 of 580 nM.

In turn, “5-O-mPEG9-Delavirdine [mPEG9-O-Delavirdine]” gave a pKa1 in series [3] of 4.655. Further, in series [2] (read-out: Wild Type RT IC50), the half-maximal inhibitory concentration (IC50) worked out at 560 nM.
